From article PMC11096237, “Utilizing a structure-based virtual screening approach to discover potential LSD1 inhibitors” (Journal of Cancer Research and Clinical Oncology, 2024) come the findings set out here.

This assay concerns the target T1, LSD1 (Homo sapiens, UniProt O60341).
T1 construct: gene KDM1A
Put plainly: Amplex Red/HRP-coupled fluorescence demethylase assay with purified recombinant LSD1 and H3K4me2. In kind it is biochemical. From the text: Amplex Red/HRP-coupled fluorescence demethylase assay with purified recombinant LSD1 and H3K4me2 on LSD1 | […]

In general, IC50 refers to the midpoint of a concentration-inhibition curve.

With `O=C(CNC(=O)Cc1ccccc1)NCC(=O)OCC(=O)c1ccc(OCc2ccccc2)cc1` [ZINC10039815], the IC50 came out at 99 nM.
